According to patent US20250270513A1, “METHOD FOR PRODUCING CULTURED TISSUE, AND PREPARATION FOR EXTERNAL APPLICATION” (National University Corporation Ehime University, priority 2019, published 2025):

What was measured:
[1] = test system: human normal skin keratinocytes on collagen gel containing normal human skin fibroblasts (NHDF); assay: Three-dimensional cultured skin on a sugar-containing dermal cell structure (Test Example 1); assay type: cell-based; conditions: 30 mg/mL sugar added instead of trehalose to collagen gel containing fibroblasts
Protocol: Subsequently, about 1 mL of the gel obtained was poured into a transwell-collagen coated insert (catalog number: 3492, manufactured by Costar; pore size: 3.0 μm, surface area: 4.67 cm^2), which is a cell culture insert, and allowed to stand in an incubator for 5 minutes or more. 5 mL of DMEM containing 10 v/v % FCS and 1 v/v % ABAM (Antibiotics-Antimycotic solution, 100×, manufactured by ThermoFisher Scientific Inc.) in which normal human skin fibroblasts (NHDF, manufactured by Cambrex Corporation) were suspended at a cell density of 5×10^5 cells/mL was added to 29 mL of the gel solution I. About 3.5 mL of a gel solution containing the cells was added to the cell culture insert, and the mixture was allowed to stand in a 37° C. incubator for 30 minutes to gel.
• (2) Next, the collagen gel (layered dermal cell structure) containing NHDF was pre-cultured for 5 days using a DMEM medium containing 50 μg/ml ascorbic acid, 10 v/v % FCS, and 1 v/v % ABAM. Next, human normal skin keratinocytes suspended in MCDB medium were seeded on the collagen gel surface so as to be 1.28×10^5 cells/cm^2, and a medium obtained by mixing equal amounts of MCDB Type-II medium (Growth Medium 2 in JP-B2-3066624) and EGM was added to an external liquid of the cell culture insert and the inside of the insert, followed by culturing at 37° C. for 2 days.
• (3) The medium was replaced with a cornification medium (CM medium), and the cell culture insert was placed such that a porous membrane of the cell culture insert was located at a gas-liquid interface of the cornification medium. In this state, the cells were subjected to gas-liquid interface culture at 37° C. for 7 to 14 days to induce differentiation, thereby obtaining three-dimensional cultured skin. The medium was replaced every two days from the start of the culture.

[2] = test system: EREG, ARG2, CCL2, IL1RN, PGF, SPP1, VEGFA, AREG and DPT mRNA; assay: qPCR of genes in monolayer fibroblasts, 24 hours (Test Example 3-3); assay type: cell-based, human; conditions: group treated with hyaluronic acid oligosaccharides (HA oligo)
Protocol: In the same manner as in Test Example 3-2, NHDF was cultured in 1% FCS and 1% ABAM-containing DMEM medium containing 0, 30, or 100 mg/mL trehalose or hyaluronic acid oligosaccharide 4mer (HA4) (product code 11006, manufactured by Cosmo Bio Co., Ltd.) for 24 hours, and RNA was recovered from the cells. Also, as a control, RNA was recovered from fibroblasts before treatment (0 h in FIG. 9). The obtained sample was subjected to the same operation as in Test Example 3-2, and qPCR for genes EREG, ARG2, CCL2, IL1RN, PGF, SPP1, VEGFA, AREG and DPT was performed. GAPDH was used as a reference gene.

| Molecule | formation of epithelial tissue layer [1] | increase in mRNA expression level of genes EREG, ARG2, CCL2, IL1RN, PGF, SPP1, VEGFA, AREG and DPT [2] |
| --- | --- | --- |
| O=C(CO)[C@@H](O)[C@H](O)[C@H](O)CO [fructose, reference compound] | no epithelial tissue layer was formed |  |
| OC[C@H]1O[C@@](CO)(O[C@H]2O[C@H](CO)[C@@H](O)[C@H](O)[C@H]2O)[C@@H](O)[C@@H]1O [sucrose, reference compound] | no epithelial tissue layer was formed |  |
| hyaluronic acid oligosaccharide 4mer [hyaluronic acid oligosaccharides, reference compound] |  | not observed |
